Our source for the remaining activity, Ki and GI50 values is patent US11111245B2, “Derivatives of N-cycloalkyl/heterocycloalkyl-4-(imidazo[1,2-a]pyridine)pyrimidin-2-amine as therapeutic agents” (Aucentra Therapeutics Pty Ltd, priority 2017, dated 2021).

The target of assay [1] is CDK4/D1 (Homo sapiens, UniProt P11802). The experiment in a line: ADP Glo Kinase assay CDK4/D1. To be noted: CDK4D1; compound at 10 μM; read-out: residual activity (%) at 10 μM CDK4D1. The class given is biochemical. In short, it runs like this: (§1)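 Other CDKs and further kinases were profiled externally by radiometric assay. In-house ADP Glo assays covered CDK4/D1 and CDK6/D3 (RB-CTF substrate, pH 7.5 Tris buffer with MgCl2, DTT, BSA) and CDK9/T1 (RBER-IRStide substrate), 40 min at 37° C.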
Sequence of CDK4/D1 (P11802 whole entry): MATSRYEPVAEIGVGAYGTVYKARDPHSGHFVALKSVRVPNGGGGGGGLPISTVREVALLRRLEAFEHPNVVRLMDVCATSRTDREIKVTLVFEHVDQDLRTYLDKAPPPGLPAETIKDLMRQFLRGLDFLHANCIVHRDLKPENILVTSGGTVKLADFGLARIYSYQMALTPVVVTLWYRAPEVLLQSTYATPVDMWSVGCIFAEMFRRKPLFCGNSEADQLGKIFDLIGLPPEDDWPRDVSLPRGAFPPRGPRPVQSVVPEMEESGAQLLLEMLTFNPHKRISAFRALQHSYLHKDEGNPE
Sequence of CDK4/D1 (P24385 whole entry partner): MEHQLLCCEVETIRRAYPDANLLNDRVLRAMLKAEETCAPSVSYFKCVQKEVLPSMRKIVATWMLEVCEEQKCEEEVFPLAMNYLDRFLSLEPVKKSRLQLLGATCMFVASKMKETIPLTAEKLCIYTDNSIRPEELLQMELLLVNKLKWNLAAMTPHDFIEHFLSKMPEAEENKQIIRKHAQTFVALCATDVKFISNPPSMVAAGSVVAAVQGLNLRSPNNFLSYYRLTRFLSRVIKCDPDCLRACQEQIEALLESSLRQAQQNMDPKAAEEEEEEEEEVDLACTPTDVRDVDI
In general terms: ADP-Glo turns the ADP formed in a reaction into a luminescent signal.

In assay [2] the target is T1, CDKs and other kinases (Homo sapiens, UniProt P50613).
T1 construct: other: CDK7H; residual activity (%) at 10 μM CDK7H; compound at 10 μM
T1 sequence (P50613 whole entry): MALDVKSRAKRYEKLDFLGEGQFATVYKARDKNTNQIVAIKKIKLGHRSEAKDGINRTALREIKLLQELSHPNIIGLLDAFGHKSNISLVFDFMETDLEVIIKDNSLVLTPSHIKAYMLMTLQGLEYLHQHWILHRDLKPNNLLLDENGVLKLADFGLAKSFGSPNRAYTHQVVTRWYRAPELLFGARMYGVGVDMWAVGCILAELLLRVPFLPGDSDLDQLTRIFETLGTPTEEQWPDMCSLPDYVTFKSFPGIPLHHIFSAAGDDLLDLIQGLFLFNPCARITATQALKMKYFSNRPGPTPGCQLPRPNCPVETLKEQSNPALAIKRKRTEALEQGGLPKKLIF
The experiment in a line: Radiometric kinase assay (Eurofins Pharma Discovery or Reaction Biology Corporation Kinase Profiler). The class given is biochemical. The conditions noted are these: CDK7H; for Ki: read-out: CDK inhibition, Ki (μM) CDK7H; for remaining activity at 10 µM: compound at 10 μM, read-out: residual activity (%) at 10 μM CDK7H. In short, it runs like this: as §1

The target in assay [3] is T2, CDKs and other kinases (Homo sapiens, UniProt P24941).
T2 construct: other: CDK2A; residual activity (%) at 10 μM CDK2A; compound at 10 μM
The description is as above. To be noted: CDK2A; for Ki: read-out: CDK inhibition, Ki (μM) CDK2A; for remaining activity at 10 µM: compound at 10 μM, read-out: residual activity (%) at 10 μM CDK2A. The class given is biochemical. The procedure, abridged: as §1

In assay [4] the target is T3, CDKs and other kinases (Homo sapiens, UniProt P06493).
T3 construct: other: CDK1B; residual activity (%) at 10 μM CDK1B; compound at 10 μM
T3 sequence (P06493 whole entry): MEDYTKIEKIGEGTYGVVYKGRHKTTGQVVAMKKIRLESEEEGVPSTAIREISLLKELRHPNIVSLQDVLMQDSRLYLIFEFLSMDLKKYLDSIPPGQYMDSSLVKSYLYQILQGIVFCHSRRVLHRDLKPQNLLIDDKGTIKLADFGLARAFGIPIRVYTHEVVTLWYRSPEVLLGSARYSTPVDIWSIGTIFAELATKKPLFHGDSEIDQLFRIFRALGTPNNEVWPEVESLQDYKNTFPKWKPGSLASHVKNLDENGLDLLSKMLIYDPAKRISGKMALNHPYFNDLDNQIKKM
The description is as above. The class given is biochemical. To be noted: CDK1B; for Ki: read-out: CDK inhibition, Ki (μM) CDK1B; for remaining activity at 10 µM: compound at 10 μM, read-out: residual activity (%) at 10 μM CDK1B. In short, it runs like this:
as §1

For assay [5], the system named is leukemia cell lines. In words: Resazurin cell viability assay on leukemia cell lines (72 h growth inhibition, GI50). The conditions noted are these: Homo sapiens, MV4-11 cells. The class given is cell-based. The procedure, abridged: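 Standard published viability protocols apply here, MTT-based for solid tumour cells and resazurin-based for leukaemia cells, with 50% growth inhibition concentrations derived through non-linear regression.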
For orientation: The colour change of resazurin is a common sign of viable cells or microbes.

For assay [6], the target named is CDK6/D3 (Homo sapiens, UniProt Q00534). The experiment in a line: ADP Glo Kinase assay CDK6/D3. The class given is biochemical. The conditions noted are these: CDK6D3; compound at 10 μM; read-out: residual activity (%) at 10 μM CDK6D3. The procedure, abridged: as §1
Sequence of CDK6/D3 (Q00534 whole entry): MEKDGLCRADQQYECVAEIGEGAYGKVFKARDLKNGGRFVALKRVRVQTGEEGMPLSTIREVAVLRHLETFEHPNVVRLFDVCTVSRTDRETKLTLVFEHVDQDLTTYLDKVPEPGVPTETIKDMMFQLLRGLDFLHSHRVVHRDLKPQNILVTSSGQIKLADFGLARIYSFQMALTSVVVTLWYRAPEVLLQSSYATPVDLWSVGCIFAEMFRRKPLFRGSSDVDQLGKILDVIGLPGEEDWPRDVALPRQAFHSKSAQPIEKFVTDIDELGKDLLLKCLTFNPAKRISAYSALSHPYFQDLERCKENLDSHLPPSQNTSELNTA
Sequence of CDK6/D3 (P30281 whole entry partner): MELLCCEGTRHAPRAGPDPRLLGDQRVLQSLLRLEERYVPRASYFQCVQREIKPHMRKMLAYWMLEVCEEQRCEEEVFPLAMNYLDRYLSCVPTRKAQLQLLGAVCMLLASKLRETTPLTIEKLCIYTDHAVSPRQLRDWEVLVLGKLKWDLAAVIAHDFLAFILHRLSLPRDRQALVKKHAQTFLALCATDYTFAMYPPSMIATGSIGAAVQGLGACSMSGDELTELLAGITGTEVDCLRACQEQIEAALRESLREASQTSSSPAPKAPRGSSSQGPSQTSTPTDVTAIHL
Assay [7] deals with CDK9/T1 (Homo sapiens, UniProt P50750). The experiment in a line: ADP Glo Kinase assay CDK9/T1. The class given is biochemical. To be noted: CDK9T1; read-out: CDK inhibition, Ki (μM) CDK9T1. In short, it runs like this:
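CDK4/D1 and CDK6/D3 were run in […] Tris pH 7.5, 20 mM MgCl2, 0.4 mM DTT, 0.1 mg/ml BSA with RB-CTF substrate; CDK9/T1 used RBER-IRStide. ATP-started reactions ran 40 min at 37° C, with ADP Glo luminescence read-out. IC50 came from 4-parameter fits; Ki from Km (ATP) and IC50.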

Where only a bound is given, the exact number is not on record here.

As usually defined, the Ki is a dissociation constant, usually derived from enzyme kinetics or from competition with a known ligand. The term GI50 denotes the concentration that inhibits growth by half. A higher GI50 goes with lower sensitivity of the cells.

Sequence of CDK9/T1 (P50750 whole entry): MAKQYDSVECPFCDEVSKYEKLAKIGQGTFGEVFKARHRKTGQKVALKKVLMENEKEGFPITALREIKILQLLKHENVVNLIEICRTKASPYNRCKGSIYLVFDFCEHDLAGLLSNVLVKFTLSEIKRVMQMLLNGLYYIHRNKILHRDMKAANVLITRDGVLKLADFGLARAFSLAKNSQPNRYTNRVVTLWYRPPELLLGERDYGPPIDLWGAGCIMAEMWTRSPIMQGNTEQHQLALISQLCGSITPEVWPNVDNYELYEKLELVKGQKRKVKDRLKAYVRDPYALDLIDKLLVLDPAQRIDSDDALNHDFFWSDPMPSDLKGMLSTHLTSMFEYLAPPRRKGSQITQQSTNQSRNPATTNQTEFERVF
Sequence of CDK9/T1 (O60563 whole entry partner): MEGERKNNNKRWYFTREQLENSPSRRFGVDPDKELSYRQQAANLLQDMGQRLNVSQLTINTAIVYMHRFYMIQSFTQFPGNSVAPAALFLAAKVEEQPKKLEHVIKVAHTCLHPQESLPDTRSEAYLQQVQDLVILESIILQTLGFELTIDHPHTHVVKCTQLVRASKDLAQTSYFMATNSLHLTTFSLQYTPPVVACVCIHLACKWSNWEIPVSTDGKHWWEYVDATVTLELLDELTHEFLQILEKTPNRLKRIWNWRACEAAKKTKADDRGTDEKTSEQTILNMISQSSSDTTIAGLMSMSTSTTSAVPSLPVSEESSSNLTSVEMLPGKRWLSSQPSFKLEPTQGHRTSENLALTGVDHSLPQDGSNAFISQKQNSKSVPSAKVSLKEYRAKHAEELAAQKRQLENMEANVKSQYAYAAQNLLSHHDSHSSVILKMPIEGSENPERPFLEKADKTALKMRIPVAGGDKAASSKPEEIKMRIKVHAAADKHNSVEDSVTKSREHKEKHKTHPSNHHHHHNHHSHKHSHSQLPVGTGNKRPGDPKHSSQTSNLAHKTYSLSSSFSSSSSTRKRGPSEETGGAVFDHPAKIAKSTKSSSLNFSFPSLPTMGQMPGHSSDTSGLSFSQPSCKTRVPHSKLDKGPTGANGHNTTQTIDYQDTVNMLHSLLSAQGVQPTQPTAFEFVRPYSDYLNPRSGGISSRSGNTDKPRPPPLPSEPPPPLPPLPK

With `Cc1cnc(N[C@H]2CC[C@H](N)CC2)nc1-c1cnc2ccc(Nc3cnccn3)cn12` [Compound 70, (1r,4r)-N^1-(5-Methyl-4-(6-(pyrazin-2-ylamino)imidazo [1,2-a]pyridin-3-yl)pyrimidin-2-yl)cyclohexane-1,4-diamine], the remaining activity at 10 µM in assay [1] was found to be 31%; in assay [6], 70%. Also, the Ki turned out to be 3.28 µM in assay [2], 1.42 µM in assay [3], 4.32 µM in assay [4] and 0.62 µM in assay [7]. For the same molecule, in assay [5], the GI50 stood at 0.212 ± 0.104 µM.

For `Cc1cnc(N[C@H]2CC[C@H](O)CC2)nc1-c1cnc2ccc(Nc3cncnc3)cn12` [Compound 108, (1r,4r)-4-((5-Methyl-4-(6-(pyrimidin-5-ylamino)imidazo [1,2-a]pyridin-3-yl)pyrimidin-2-yl)amino)cyclohexan-1-ol], the remaining activity at 10 µM in assay [1] turned out to be 70%; in assay [6], 68%. The Ki in assay [2] amounted to 4.76 µM; in assay [3], 0.035 µM; in assay [4] it was 0.16 µM; in assay [7], 0.018 µM. This molecule came in with a GI50 in assay [5] above 10 µM.

On to `Cc1cnc(N[C@H]2CC[C@H](O)CC2)nc1-c1cnc2ccccn12` [Compound 107, (1r,4r)-4-((4-(Imidazo[1,2-a]pyridin-3-yl)-5-methylpyrimidin-2-yl)amino)cyclohexan-1-ol], for which the remaining activity at 10 µM is 37% in assay [1]; 34% in assay [2]; 5% in assay [3]; 47% in assay [4]; 54% in assay [6]. In addition, in assay [5], the GI50 came to 1.42 ± 0.652 µM. The Ki in assay [7] stood at 0.161 µM.

Regarding `Cc1cnc(NC2CCCC(N)C2)nc1-c1cnc2ccc(Nc3cncnc3)cn12` (centres unmarked) [Compound 96, N^1-(5-Methyl-4-(6-(pyrimidin-5-ylamino)imidazo[1,2-a]pyridin-3-yl)pyrimidin-2-yl)cyclohexane-1,3-diamine], the remaining activity at 10 µM in assay [1] turned out to be 49%; in assay [2], 63%; in assay [3] it was 37%; in assay [4], 63%; in assay [6], 90%. Also, in assay [5], the GI50 was above 10 µM. In addition, the inhibition constant Ki in assay [7] was determined as 0.193 µM.

Consider `Cc1cnc(N[C@H]2CC[C@H](N)CC2)nc1-c1cnc2cc(-c3ccccc3)ccn12` [Compound 53, (1r,4r)-N^1-(5-Methyl-4-(7-phenylimidazo[1,2-a]pyridin-3-yl)pyrimidin-2-yl)cyclohexane-1,4-diamine], for which the remaining activity at 10 µM is 0% in assay [1]; 5% in assay [2]; 3% in assay [3]; 18% in assay [4]; 0% in assay [6]. Besides, it took 0.002 ± 0.001 µM to inhibit growth in assay [5] by half (GI50). Further, the Ki in assay [7] was 0.049 µM.

Take `CS(=O)(=O)N1CCC(Nc2ncc(F)c(-c3cnc4ccccn34)n2)CC1` [Compound 24, 5-Fluoro-4-(imidazo[1,2-a]pyridin-3-yl)-N-(1-(methylsulfonyl)piperidin-4-yl)pyrimidin-2-amine]: the remaining activity at 10 µM is -16% in assay [1], -1% in assay [3], -1% in assay [4] and 18% in assay [6]. In addition, the Ki in assay [2] stood at 0.281 µM; in assay [7] it was 0.141 µM. Besides, in assay [5], growth was halved (GI50) at 0.506 ± 0.104 µM.

Turning to `Cc1cnc(N[C@H]2CC[C@H](O)CC2)nc1-c1cnc2ccc(-c3ccccc3)cn12` [Compound 105, (1r,4r)-4-((5-Methyl-4-(6-phenylimidazo[1,2-a]pyridin-3-yl)pyrimidin-2-yl)amino)cyclohexan-1-ol], the remaining activity at 10 µM in assay [1] was determined as 93%; in assay [2], 15%; in assay [3], 3%; in assay [4] it was 7%; in assay [6], 94%. In addition, the GI50 in assay [5] was found to be 0.748 ± 0.063 µM. In addition, the Ki in assay [7] stood at 0.188 µM.

`Cc1cnc(N[C@H]2CC[C@H](N)CC2)nc1-c1cnc2ccc(NC(=O)c3ccc(F)cc3)cn12` [Compound 72, N-(3-(2-(((1r,4r)-4-Aminocyclohexyl)amino)-5-methylpyrimidin-4-yl)imidazo[1,2-a]pyridin-6-yl)-4-fluorobenzamide]: the remaining activity at 10 µM was found to be 77% in assay [1]; 57% in assay [2]; 52% in assay [3]; 69% in assay [4]; 85% in assay [6]. In addition, in assay [5], it took 1.46 ± 0.476 µM to inhibit growth by half (GI50). Besides, the Ki in assay [7] came to 0.194 µM.

As to `CN(C)S(=O)(=O)c1ccc(-c2ccc3ncc(-c4nc(N[C@H]5CC[C@H](N)CC5)ncc4F)n3c2)cc1` [Compound 48, 4-(3-(2-(((1r,4r)-4-Aminocyclohexyl)amino)-5-fluoropyrimidin-4-yl)imidazo[1,2-a]pyridin-6-yl)-N,N-dimethylbenzenesulfonamide], the remaining activity at 10 µM stood at 4% in assay [1]; 8% in assay [2]; 3% in assay [3]; 13% in assay [4]; 45% in assay [6]. This molecule showed a GI50 in assay [5] of 0.002 µM. Moreover, the Ki in assay [7] amounted to 0.004 µM.

Consider `COc1ccc(-c2ccc3ncc(-c4nc(N[C@H]5CC[C@H](N)CC5)ncc4Cl)n3c2)cc1` [Compound 82, (1r,4r)-N^1-(5-Chloro-4-(6-(4-methoxyphenyl)imidazo [1,2-a]pyridin-3-yl)pyrimidin-2-yl)cyclohexane-1,4-diamine], for which the remaining activity at 10 µM was 20% in assay [1] and 99% in assay [6]. Also, the Ki in assay [2] turned out to be 0.15 µM; in assay [3] it was 0.22 µM; in assay [4], 0.82 µM; in assay [7], 0.018 µM. For the same molecule, in assay [5], the GI50 amounted to 0.054 ± 0.015 µM.

In the case of `Fc1cnc(NC2CCN(CC3CC3)CC2)nc1-c1cnc2ccccn12` [Compound 22, N-(1-(Cyclopropylmethyl)piperidin-4-yl)-5-fluoro-4-(imidazo[1,2-a]pyridin-3-yl)pyrimidin-2-amine], the remaining activity at 10 µM came out at 2% in assay [1] and 42% in assay [6]. Also, the Ki in assay [2] was 0.437 µM; in assay [3] it was 1.12 µM; in assay [4], 1.06 µM; in assay [7] it was 0.095 µM. In addition, in assay [5], the GI50 was determined as 0.041 ± 0.012 µM.

As to `Cc1cnc(NC2CCC(N(C)C)CC2)nc1-c1cnc2ccc(-c3ccccc3)cn12` (centres unmarked) [Compound 97, N^1,N^1-Dimethyl-N^4-(5-methyl-4-(6-phenylimidazo[1,2-^a]pyridin-3-yl)pyrimidin-2-yl)cyclohexane-1,4-diamine], the remaining activity at 10 µM in assay [1] was found to be 54%; in assay [2], 9%; in assay [3] it was 32%; in assay [4], 28%; in assay [6], 39%. In assay [5], this molecule returned a GI50 of 0.058 ± 0.002 µM. The Ki in assay [7] came out at 0.016 µM.

With `N[C@H]1CC[C@H](Nc2ncc(Cl)c(-c3cnc4ccc(NC(=O)c5ccccc5)cn34)n2)CC1` [Compound 87, N-(3-(2-(((1r,4r)-4-Aminocyclohexyl)amino)-5-chloropyrimidin-4-yl)imidazo[1,2-a]pyridin-6-yl) benzamide], the remaining activity at 10 µM worked out at 73% in assay [1]; 14% in assay [2]; 19% in assay [3]; 31% in assay [4]; 39% in assay [6]. Moreover, the GI50 in assay [5] was 0.135 ± 0.057 µM. Moreover, the Ki in assay [7] worked out at 0.073 µM.

In the case of `Cc1cnc(N[C@]23C[C@@]4(C)C[C@](C)(C[C@](O)(C4)C2)C3)nc1-c1cnc2ccc(Nc3cccnc3)cn12` [Compound 101, (1s,3R,5S,7r)-3,5-Dimethyl-7-((5-methyl-4-(6-(pyridin-3-ylamino)imidazo[1,2-a]pyridin-3-yl)pyrimidin-2-yl)amino)adamantan-1-ol], the remaining activity at 10 µM in assay [1] came to 97%; in assay [2], 85%; in assay [3], 41%; in assay [4] it was 60%; in assay [6], 100%. In addition, the GI50 in assay [5] was above 10 µM. The Ki in assay [7] came to 0.561 µM.
